Data reported in paper PMC6264295, “Studies on Log Po/w of Quinoxaline di-N-Oxides: A Comparison of RP-HPLC Experimental and Predictive Approaches” (Molecules, 2011).

Key:
[1] = RP-HPLC determination of capacity factors and log Po/w (Supelcosil LC-ABZ, MOPS buffer pH 7.4/methanol); conditions: for Capacity factors log k’40: 40% methanol; for Capacity factors log k’40 / Capacity factors log k’50 / Capacity factors log k’60 / Capacity factors log k’70: MOPS buffer pH 7.4; for Capacity factors log k’50: 50% methanol; for Capacity factors log k’60: 60% methanol; for Capacity factors log k’70: 70% methanol; for Capacity factors log k’0: extrapolated to 0% methanol; for chromatographic logP: pH 7.4, RP-HPLC log Po/w; for log k’0: capacity factor extrapolated to 0% methanol; for RP-HPLC log Po/w: from log k’0 by Equation (1)
Protocol: The RP-HPLC methods of Minick and Lombardo [53] were considered for estimating the n-octanol/water partition coefficients (log Po/w) of QdO. The inorganic salts and the reference compounds were, at least, of analytical grade (Sigma Aldrich and Fluka) and used without further purification. HPLC-grade methanol, n-octanol (Sigma-Aldrich) and bi-distilled water were used to prepare the mobile phase.
The other chromatographic conditions were: flow 1.0 mL/min^−1; isocratic elution, UV-visible detector set at the wavelength with maximum absorbance (260 and 210 nm). The test solutions were 0.3 mM in the desired compound. All the experiments were performed at 25 ± 2 °C at least twice.
The capacity factors were calculated according to Equation (2): […]
In order to judge if the experimentally measured log k’0 can be used to predict the log Po/w value, a calibration curve was created with the capacity factors of the reference compounds and a linear regression equation between the log Po/w and log k’0 was determined.
The robustness of the model and its predictivity were evaluated by the leave-one-out (LOO) cross-validation procedure. According to this procedure, the log Po/w value of each compound in the reference data set is predicted by the equations derived from all the other compounds except the predicted one. At the end of this procedure two values are available for each reference compound, the reference shake-flask log Po/w value (yi) and the predicted one (ŷi). […] The regression coefficient (R^2LOO) is defined by Equation (5): [drawing 8] (5) where [drawing 9] is the mean of the reference shake-flask log Po/w value and n is the number of reference compounds. A high value of R^2LOO indicates a good predictive ability of the model. The root mean squared error in prediction (RMSELOO) is calculated with Equation (6): [drawing 10] (6)

[2] = set-up: method as in earlier work; conditions: reduction peak potential; cited from earlier work
[3] = reference compounds; reference values; ref OECD Guidelines [39]; cited from earlier work
[4] = reference compounds, leave-one-out cross-validation

## Cc1ccc2c(c1)[n+]([O-])c(C(=O)NCc1ccc(Br)cc1)c(C)[n+]2[O-] [Compound 19]
[1]
  Capacity factors log k’40: 0.94
  Capacity factors log k’50: 0.60
  Capacity factors log k’60: 0.21
  Capacity factors log k’70: −0.16
  chromatographic logP: 2.69
[1]; pH 7.4
  Capacity factors log k’0: 2.43
[2]
  Epc,1: −1.580

## Cc1c(C(=O)NCc2ccccc2)[n+]([O-])c2cc(Cl)c(Cl)cc2[n+]1[O-] [Compound 13]
[1]
  Capacity factors log k’40: 0.98
  Capacity factors log k’50: 0.66
  Capacity factors log k’60: 0.27
  Capacity factors log k’70: −0.11
  chromatographic logP: 2.72
[1]; pH 7.4
  Capacity factors log k’0: 2.46
[2]
  Epc,1: −1.211

## Cc1c(C(=O)NCC(c2ccccc2)c2ccccc2)[n+]([O-])c2cc(Cl)ccc2[n+]1[O-] [Compound 28]
[1]
  Capacity factors log k’40: 1.38
  Capacity factors log k’50: 0.91
  Capacity factors log k’60: 0.38
  Capacity factors log k’70: −0.13
  chromatographic logP: 3.69
[1]; pH 7.4
  Capacity factors log k’0: 3.42
[2]
  Epc,1: −1.491

## Cc1ccc(CNC(=O)c2c(C)[n+]([O-])c3ccc(Cl)cc3[n+]2[O-])cc1 [Compound 24]
[1]
  Capacity factors log k’40: 0.93
  Capacity factors log k’50: 0.54
  Capacity factors log k’60: 0.15
  Capacity factors log k’70: −0.25
  chromatographic logP: 2.77
[1]; pH 7.4
  Capacity factors log k’0: 2.51
[2]
  Epc,1: −1.489

## c1ccc2ccccc2c1 [Compound 8, Naphthalene, reference compound]
[1]; reference compounds, pH 7.4
  log k’0: 3.15
[1]; reference compounds
  RP-HPLC log Po/w: 3.42

## CC(=O)Nc1ccccc1 [Compound 3, Acetanilide, reference compound]
[1]; pH 7.4
  LOO-predicted RP-HPLC log Po/w: 1.19
[1]; reference compounds, pH 7.4
  log k’0: 0.88
[1]; reference compounds
  RP-HPLC log Po/w: 1.15

## Cc1c(C(=O)NCCc2ccccc2)[n+]([O-])c2cc(Cl)c(Cl)cc2[n+]1[O-] [Compound 17]
[1]
  Capacity factors log k’40: 1.07
  Capacity factors log k’50: 0.74
  Capacity factors log k’60: 0.34
  Capacity factors log k’70: −0.06
  chromatographic logP: 2.87
[1]; pH 7.4
  Capacity factors log k’0: 2.60
[2]
  Epc,1: −1.387

## Cc1c(C(=O)NCc2ccc(Br)cc2)[n+]([O-])c2cc(Cl)ccc2[n+]1[O-] [Compound 20]
[1]
  Capacity factors log k’40: 1.22
  Capacity factors log k’50: 0.84
  Capacity factors log k’60: 0.42
  Capacity factors log k’70: 0.02
  chromatographic logP: 3.09
[1]; pH 7.4
  Capacity factors log k’0: 2.83
[2]
  Epc,1: −1.445

## Cc1ccc(CNC(=O)c2c(C)[n+]([O-])c3cc(Cl)c(Cl)cc3[n+]2[O-])cc1 [Compound 25]
[1]
  Capacity factors log k’40: 1.33
  Capacity factors log k’50: 0.93
  Capacity factors log k’60: 0.54
  Capacity factors log k’70: 0.14
  chromatographic logP: 3.18
[1]; pH 7.4
  Capacity factors log k’0: 2.91

## Clc1ccccc1 [Compound 6, Chlorobenzene, reference compound]
[1]; reference compounds, pH 7.4
  log k’0: 2.62
[1]; reference compounds
  RP-HPLC log Po/w: 2.89
[1]; [4]
  LOO-predicted RP-HPLC log Po/w: 2.90

## Cc1c(C(=O)NCc2ccc(Br)cc2)[n+]([O-])c2ccccc2[n+]1[O-] [Compound 18]
[1]
  Capacity factors log k’40: 0.85
  Capacity factors log k’50: 0.48
  Capacity factors log k’60: 0.11
  Capacity factors log k’70: −0.24
  chromatographic logP: 2.57
[1]; pH 7.4
  Capacity factors log k’0: 2.30
[2]
  Epc,1: −1.540

## Cc1c(C(=O)NCc2ccccc2)[n+]([O-])c2cc(Cl)ccc2[n+]1[O-] [Compound 12]
[1]
  Capacity factors log k’40: 0.65
  Capacity factors log k’50: 0.30
  Capacity factors log k’60: −0.05
  Capacity factors log k’70: −0.36
  chromatographic logP: 2.25
[1]; pH 7.4
  Capacity factors log k’0: 1.98
[2]
  Epc,1: −1.482

## Cc1ccc2c(c1)[n+]([O-])c(C(=O)NCCc1ccccc1)c(C)[n+]2[O-] [Compound 15]
[1]
  Capacity factors log k’40: 0.47
  Capacity factors log k’50: 0.21
  Capacity factors log k’60: −0.13
  Capacity factors log k’70: −0.45
  chromatographic logP: 2
[1]; pH 7.4
  Capacity factors log k’0: 1.73
[2]
  Epc,1: −1.649

## Cc1c(C(=O)NCC(c2ccccc2)c2ccccc2)[n+]([O-])c2cc(Cl)c(Cl)cc2[n+]1[O-] [Compound 29]
[1]
  Capacity factors log k’40: 1.78
  Capacity factors log k’50: 1.31
  Capacity factors log k’60: 0.76
  Capacity factors log k’70: 0.25
  chromatographic logP: 4.12
[1]; pH 7.4
  Capacity factors log k’0: 3.86
[2]
  Epc,1: −1.410

## Cc1ccc2c(c1)[n+]([O-])c(C(=O)NCC(c1ccccc1)c1ccccc1)c(C)[n+]2[O-] [Compound 27]
[1]
  Capacity factors log k’40: 1.21
  Capacity factors log k’50: 0.80
  Capacity factors log k’60: 0.33
  Capacity factors log k’70: −0.12
  chromatographic logP: 3.28
[1]; pH 7.4
  Capacity factors log k’0: 3.02
[2]
  Epc,1: −1.640

## Cc1ccc2c(c1)[n+]([O-])c(C(=O)NCc1ccccc1)c(C)[n+]2[O-] [Compound 11]
[1]
  Capacity factors log k’40: 0.35
  Capacity factors log k’50: 0.07
  Capacity factors log k’60: −0.24
  Capacity factors log k’70: −0.56
  chromatographic logP: 1.85
[1]; pH 7.4
  Capacity factors log k’0: 1.58
[2]
  Epc,1: −1.658

## CCC(C)=O [Compound 1, 2-Butanone, reference compound]
[1]; reference compounds, pH 7.4
  log k’0: −0.06
[1]; reference compounds
  RP-HPLC log Po/w: 0.21
[1]; [4]
  LOO-predicted RP-HPLC log Po/w: 0.15
[3]
  log Po/w: 0.3

## Brc1ccccc1 [Compound 7, Bromobenzene, reference compound]
[1]; reference compounds, pH 7.4
  log k’0: 2.84

## Nc1ccccc1 [Compound 2, Aniline, reference compound]
[1]; reference compounds, pH 7.4
  log k’0: 0.67
[1]; reference compounds
  RP-HPLC log Po/w: 0.94
[1]; [4]
  LOO-predicted RP-HPLC log Po/w: 0.96

## CC(=O)c1ccccc1 [Compound 4, Acetophenone, reference compound]
[1]; pH 7.4
  LOO-predicted RP-HPLC log Po/w: 1.52
[1]; reference compounds, pH 7.4
  log k’0: 1.27
[1]; reference compounds
  RP-HPLC log Po/w: 1.54

## c1ccccc1 [Compound 5, Benzene, reference compound]
[1]; reference compounds, pH 7.4
  log k’0: 1.87
[1]; reference compounds
  RP-HPLC log Po/w: 2.14

## Cc1c(C(=O)NCc2ccc(Br)cc2)[n+]([O-])c2cc(Cl)c(Cl)cc2[n+]1[O-] [Compound 21]
[1]
  Capacity factors log k’40: 1.60
  Capacity factors log k’50: 1.15
  Capacity factors log k’60: 0.65
  Capacity factors log k’70: 0.19
  chromatographic logP: 3.78
[1]; pH 7.4
  Capacity factors log k’0: 3.51
[2]
  Epc,1: −1.363

## Cc1c(C(=O)NCCc2ccccc2)[n+]([O-])c2cc(Cl)ccc2[n+]1[O-] [Compound 16]
[1]
  Capacity factors log k’40: 0.69
  Capacity factors log k’50: 0.36
  Capacity factors log k’60: 0.00
  Capacity factors log k’70: −0.37
  chromatographic logP: 2.38
[1]; pH 7.4
  Capacity factors log k’0: 2.11
[2]
  Epc,1: −1.525

## Cc1c(C(=O)NCc2ccccc2)[n+]([O-])c2ccccc2[n+]1[O-] [Compound 10]
[1]
  Capacity factors log k’40: 0.28
  Capacity factors log k’50: −0.05
  Capacity factors log k’60: −0.34
  Capacity factors log k’70: −0.64
  chromatographic logP: 1.76
[1]; pH 7.4
  Capacity factors log k’0: 1.49

## Cc1c(C(=O)NCCc2ccccc2)[n+]([O-])c2ccccc2[n+]1[O-] [Compound 14]
[1]
  Capacity factors log k’40: 0.36
  Capacity factors log k’50: 0.05
  Capacity factors log k’60: −0.26
  Capacity factors log k’70: −0.58
  chromatographic logP: 1.88
[1]; pH 7.4
  Capacity factors log k’0: 1.61
[2]
  Epc,1: −1.625

## Cc1ccc(CNC(=O)c2c(C)[n+]([O-])c3ccc(C)cc3[n+]2[O-])cc1 [Compound 23]
[1]
  Capacity factors log k’40: 0.66
  Capacity factors log k’50: 0.34
  Capacity factors log k’60: −0.01
  Capacity factors log k’70: −0.36
  chromatographic logP: 2.29
[1]; pH 7.4
  Capacity factors log k’0: 2.02
[2]
  Epc,1: −1.590

## Cc1c(C(=O)NCC(c2ccccc2)c2ccccc2)[n+]([O-])c2ccccc2[n+]1[O-] [Compound 26]
[1]
  Capacity factors log k’40: 1.06
  Capacity factors log k’50: 0.62
  Capacity factors log k’60: 0.14
  Capacity factors log k’70: −0.33
  chromatographic logP: 3.18
[1]; pH 7.4
  Capacity factors log k’0: 2.92
[2]
  Epc,1: −1.591

## Cc1ccc(CNC(=O)c2c(C)[n+]([O-])c3ccccc3[n+]2[O-])cc1 [Compound 22]
[1]
  Capacity factors log k’40: 0.62
  Capacity factors log k’50: 0.25
  Capacity factors log k’60: −0.10
  Capacity factors log k’70: −0.44
  chromatographic logP: 2.29
[1]; pH 7.4
  Capacity factors log k’0: 2.02
[2]
  Epc,1: −1.580
